The values below come from patent publication US20110166066A1, “CATESTATIN (CST) AND ITS VARIANTS FOR TREATMENT OF CARDIOVASCULAR AND METABOLIC DISORDERS” (priority 2008, published 2011).

Entries after “also recorded” stand apart in the source; their conditions may differ. Counter-ions that a name gives are not always drawn. Like-named read-outs stand apart in the source and are kept apart here. No end group written: not given here.

Assay [1] has as its system Langendorff perfused rat heart. Kind of assay: Isoproterenol stimulated Langendorff heart preparations. As to conditions: for Coronary pressure (ISO alone or ISO + peptide) / Inotropism (ISO alone or ISO + peptide) / Lusitropism (ISO alone or ISO + peptide): Table 3, ISO 5 nM; for ISO stimulatory effect on LVP: measured at 5 min. On the procedure:
Isoproterenol stimulated preparations—Cardiac preparations were stabilized for 20 min with KHs and then perfused with 5 nM ISO for 10 min. ISO was washed-out with KHs. After returning to control conditions, each heart was perfused with KHs containing a single concentration of WT-Cts […] or G364S-Cts (200 nM) with 5 nM ISO for a further 10 min.
To further describe the antagonistic action of either WT-Cts (33 nM), P370L-Cts (110 nM) or G364S-Cts (200 nM) against ISO-dependent stimulation, dose-response curves were generated by perfusing the heart preparations with KHs enriched with increasing concentrations of ISO (0.1 nM to 1 μM) alone. These curves were then compared to those obtained by exposing other cardiac preparations to the same perfusion medium containing increasing concentrations of ISO (0.1 nM to 1 μM) plus a single concentration of either WT-Cts (33 nM) or P370L-Cts (110 nM) or G364S-Cts (200 nM).
Statistics—Data are expressed as the mean±SEM. Curve fitting was accomplished in the program Kaleidagraph (Synergy Software, Reading, Pa.). Peptide EC50 and IC50 values were interpolated as the concentration that achieved 50% stimulation and inhibition, respectively. For analysis of phosphorylated proteins, levels were quantified using Bio-Rad QuantifyOne and volumes of phosphorylated proteins were divided by the levels of non-phosphorylated proteins to calculate fold activation. Stimulation of protein activity was expressed as fold increase over vehicle-treated control. The means and S.E.M. were calculated for each treatment. Multiple comparisons were made using either one-way ANOVA followed by Bonferroni's post-hoc test or two-way ANOVA. Statistical significance was concluded at p<0.05. Statistics were computed with the program InStat (GraphPad Software, Inc., San Diego, Calif.).
To characterize the inhibitory action of either WT-CST (11, 33 or 110 nM), G364S-CST (200 nM) or P370L-CST (110 nM) toward ISO-dependent stimulation of cardiac function, heart preparations were perfused with KHs containing increasing concentrations of ISO (0.1 nM to 1 μM) either alone or in combination with one of the three CST variants.

The test system of assay [2] is Langendorff perfused rat heart. The assay is described as above. As to conditions: P370L-CST 165 nM, G364S-CST 200 nM; for ISO-induced stimulation of LVP (concentration-response): ISO 0.1 nM to 1 μM, WT-CST 33 and 110 nM.
Assay [3] has as its system WT and Chga knockout (KO) mice. Put plainly: Response to PE or SNP and baroreflex sensitivity in unconscious mice. The format is in vivo. The following applies: for Increase in SBP: 0.005 μg/g bw iv. On the procedure:
Unconscious mice. Surgical procedures for hemodynamic measurements: Hemodynamic evaluation in both WT and KO mice was performed under general anesthesia [ketamine (100 mg/kg) and xylazine (2.5 mg/kg)] while connected to a ventilator. LV pressure was monitored by Millar micromanometer catheter of size 1.4 French (0.46 mm; Millar Instruments, Houston, Tex.); it was inserted into the LV where phasic and mean pressure was continuously monitored (Gould, Cleveland, Ohio). A venous catheter (MicroRenathane tube MRE-033; Braintree Laboratories, Braintree, Mass.) is implanted on right femoral vein for injection of peptide and other reagents. All physiologic signals were acquired by WINDAQ (Dataq Instruments, Akron, Ohio) and analyzed by BP-Analysis software (developed for own laboratory).
Assessment of baroreflex sensitivity (BRS): BRS (in milliseconds per mmHg) was assessed by both high-pressure [phenylephrine (PE) bolus] and low-pressure [sodium nitroprusside (SNP) bolus] stimuli in unconscious mice. Although conscious animals provide optimal physiological data, a host of undesirable signals are triggered by physical activities, and sleep cycle alterations in behavioral state. Therefore, we have chosen to conduct the experiments in unconscious mice to avoid some of the pitfalls encountered in awake animals. The absolute changes of HR in response to changes in SBP induced by PE or SNP were subjected to linear regression analysis to determine BRS. To test the effect of CST on BRS in KO mice, CST was injected (40 μg/g bw iv) 30 min before the injection of PE or SNP through the catheter implanted into the femoral vein.
BRS to high-pressure stimulus. High pressure BRS was evaluated by recording diminution of HR in response to PE-induced hypertension. Changes in SBP and HR were recorded continuously for 0.5 min after a bolus injection of PE (0.005 μg/g bw iv). This dose was selected from a preliminary dose-response study (0.001-0.05 μg/g bw iv).
BRS to low-pressure stimulus. This was evaluated by recording increments in HR in response to SNP-induced fall in BP. Changes in SBP and HR were recorded continuously for 0.5 min after a bolus injection of SNP (0.05 μg/g bw iv). This dose was selected from a preliminary dose-response study (0.01-0.1 μg/g bw iv).

The test system of assay [4] is Langendorff perfused rat heart. Kind of assay: ET-1 stimulated Langendorff heart preparations. The following applies: for ET-1 induced positive inotropism: ET-1 1 nM, WT-CST 33 nM, P370L-CST 110 nM, G364S-CST 200 nM. On the procedure: ET-1 stimulated preparations—Hearts, stabilized for 20 min with KHs, were perfused for 10 min with ET-1 (1 nM) and then washed-out with KHs. After returning to control conditions, each heart was perfused with KHs containing a single concentration of either WT-Cts (33 nM), P370L-Cts (110 nM) or G364S-Cts (200 nM) plus 1 nM ET-1 for a further 10 min.

Assay [5] relates to sympathochromaffin cells. As to conditions: in vitro; cited from earlier work.
The test system of assay [6] is Langendorff perfused rat heart. Kind of assay: Langendorff perfused rat heart, basal conditions: concentration-response of catestatin peptides. The following applies: for Activity rank order / Inotropism / Lusitropism: basal conditions, Table 2. From the text:
Animals-Male Wistar rats (Morini, Bologna, Italy S.P.A.) weighing 180-250 g were housed (three per cage) in a ventilated cage rack system under standard conditions. Animals had food and water access ad libitum. The investigation conforms to the Guide for the Care and Use of Laboratory Animals, according to NIH Publication No. 85-23, revised 1996. Isolated heart preparation-Rats were anesthetized with ethyl carbamate (2 g/Kg rat, i.p.), the hearts rapidly excised and then transferred in ice-cold buffered Krebs-Henseleit solution (KHs). As previously described (23), the aorta was immediately cannulated with a glass cannula and connected to Langendorff apparatus to start perfusion at constant flow-rate (12 ml/min). Briefly, the apex of the left ventricle (LV) was pierced to avoid fluid accumulation. A water-filled latex balloon, connected to a pressure transducer ([…], Inc. USA), was inserted through mitral valve into the LV allowing isovolumic contractions and continuous mechanical parameters recording. Another pressure transducer located just above the aorta recorded coronary pressure (CP). […] Hemodynamic parameters were assessed using a PowerLab data acquisition system and analysed using Chart software (both purchased by ADInstruments, Basile, Italy). […] Curve fitting was accomplished in the program Kaleidagraph (Synergy Software, Reading, Pa.). Peptide EC50 and IC50 values were interpolated as the concentration that achieved 50% stimulation and inhibition, respectively. For analysis of phosphorylated proteins, levels were quantified using Bio-Rad QuantifyOne and volumes of phosphorylated proteins were divided by the levels of non-phosphorylated proteins to calculate fold activation. Stimulation of protein activity was expressed as fold increase over vehicle-treated control. The means and S.E.M. were calculated for each treatment. Multiple comparisons were made using either one-way ANOVA followed by Bonferroni's post-hoc test or two-way ANOVA. Statistical significance was concluded at p<0.05. Statistics were computed with the program InStat (GraphPad Software, Inc., San Diego, Calif.).

Assay [7] deals with ECs. As to conditions: cited from earlier work.

The term EC50 denotes the concentration that produces a half-maximal response. Regarding `CC(C)NCC(O)c1ccc(O)c(O)c1` (centres unmarked) [ISO, Isoproterenol hydrochloride, reference compound], in assay [1] (5 nM to 1 μM), the “Effect of ISO alone on LVP” value is on record as “increased LVP significantly”. Besides, the EC50 in assay [1] (Rattus norvegicus, ISO alone, read-out: EC50 of ISO-mediated LVP stimulation (converted)) was 2.14 nM. In assay [1], the “Coronary pressure (ISO alone or ISO + peptide)” value is on record as “Vasodilation”, the “Inotropism (ISO alone or ISO + peptide)” value is listed as “Positive” and the “Lusitropism (ISO alone or ISO + peptide)” value is listed as “Positive”. For the same molecule, the EC50 in assay [2] (Rattus norvegicus, Table 3, values match WT-CST 110 nM, read-out: EC50 (ISO on LVP, alone or + peptide) (converted)) was 2.14 nM.
For `CNC[C@H](O)c1cccc(O)c1` [PE, phenylephrine], in assay [3] (KO mice), the PE-induced bradycardia entry was “completely abolished” and the “Increase in SBP” value is given as 45.6 mmHg. In addition, the “Decrease in HR” value in assay [3] (WT mice, 0.005 μg/g bw) is recorded as 26 bpm. Moreover, the “Increase in SBP” value in assay [3] (WT mice) turned out to be 34.1 mmHg.
On to “G364S-CST: SEQ ID NO. 4 SSMKLSFRARAYSFRGPGPQL, naturally occurring Gly364Ser variant of catestatin (listed as Homo sapiens)”, for which, in assay [1] (ISO 5 nM), the “Block of ISO-dependent +(LVdP/dT)max” value is reported as greater than 100%, the “ISO induced coronary dilation” value is given as “blocked”, the “ISO-dependent decrease of T/−t” value was “blocked” and the ISO-induced positive lusitropism entry is “blocked”. In addition, in assay [1] (ISO 5 nM), the “Rank order of potency against ISO” value is listed as “Order of potency: WT-CST > G364S-CST > P370L-CST” and the “ISO stimulatory effect on LVP” value is reported as “abolished”. For the same molecule, in assay [1], the “Coronary pressure (ISO alone or ISO + peptide)” value is listed as “Abolished”, the “Inotropism (ISO alone or ISO + peptide)” value was “Abolished” and the “Lusitropism (ISO alone or ISO + peptide)” value is “Abolished”. Also, the “ET-1 induced positive inotropism” value in assay [4] was “blocked”. Further, the “Rank order of potency, inhibition of catecholamine secretion” value in assay [5] was “Pro370Leu>wild-type (WT)>Gly364Ser>Arg374Gln; also recorded: Pro370Leu>wildtype (WT)>Gly364Ser>Arg374Gln”. Besides, the “Other parameters tested (HR, LVP, +(LVdP/dT)max, −(LVdP/dT)max)” value in assay [6] (11 to 200 nM) is “unaffected”. In addition, in assay [6], the Activity rank order entry was “Activity: WT-CST > P370L-CST > G364S-CST”, the Inotropism result was “No effect” and the Lusitropism result was “No effect”. Further, the “Effect on RPP” value in assay [6] (even at 33 nM) is listed as “significant increase”. For the same molecule, in assay [2], the “ISO-induced stimulation of LVP (concentration-response)” value is on record as “significantly inhibited”.
For “P370L-CST: SEQ ID NO. 3 SSMKLSFRARAYGFRGPGLQL, naturally occurring Pro370Leu variant of catestatin (listed as Homo sapiens)”, in assay [1] (ISO 5 nM), the “ISO induced coronary dilation” value is listed as “remaining unchanged”, the ISO-induced positive lusitropism entry was “failed to modulate”, the “Rank order of potency against ISO” value is “Order of potency: WT-CST > G364S-CST > P370L-CST” and the “ISO stimulatory effect on LVP” value was “abolished”. In assay [1], the “Coronary pressure (ISO alone or ISO + peptide)” value is listed as “No effect”, the “Inotropism (ISO alone or ISO + peptide)” value is listed as “Abolished” and the “Lusitropism (ISO alone or ISO + peptide)” value is on record as “Abolished”. The “ET-1 induced positive inotropism” value in assay [4] is “blocked”. Also, in assay [5], the “Rank order of potency, inhibition of catecholamine secretion” value is on record as “Pro370Leu>wild-type (WT)>Gly364Ser>Arg374Gln; also recorded: Pro370Leu>wildtype (WT)>Gly364Ser>Arg374Gln”. In assay [6], the “Concentration of maximum decrease in +(LVdP/dT)max” value was found to be 200 nM; the “Concentration of maximum decrease in LVP and RPP” value is given as 200 nM; the “Effect on −(LVdP/dT)max” value is on record as “marked decrease”; the Activity rank order result is recorded as “Activity: WT-CST > P370L-CST > G364S-CST”. For the same molecule, in assay [6], the Inotropism result is listed as “Negative” and the Lusitropism result is reported as “No effect”. The “Effect on CP (coronary pressure)” value in assay [6] (basal) is “not accompanied by changes”. For the same molecule, the “Effect on HR” value in assay [6] (basal, WT-Cts significant at 33 nM) is recorded as “not accompanied by changes”. The “Inotropic effect (LVP, RPP)” value in assay [6] (from 110 to 200 nM) is recorded as “negative inotropism”. The “Effect on +(LVdP/dT)max” value in assay [6] (starting from 110 nM) is recorded as “marked decrease”. Further, the “ISO-induced stimulation of LVP (concentration-response)” value in assay [2] was “significantly inhibited”.
Regarding “endothelin-1 (CSCSSLMDKECVYFCHLDIIW; ends and bridges not checked; cysteine pairing not given here; UniProt P05305 53-73, looked up) [ET-1, endothelin-1, purchased from Sigma, reference compound]”, in assay [4] (1 nM), the “Effect on LVP and +(LVdP/dT)max” value was “increased”. Further, the “Effect on coronary constriction” value in assay [4] (ET-1 alone 1 and 10 nM) is recorded as “significant increase in coronary constriction”.

B1: vasostatin: another peptide derived from CgA, inhibited angiogenesis induced by VEGF (peptide, UniProt P10645 19-94, looked up)
Vasostatin-1: LPVNSPMNKGDTEVMKCIVEVISDTLSKPSPMPVSQECFETLRGDERILSILRHQNLLKELQDLALQGAKERAHQQ
modifications: Vasostatin-1
Regarding B1, the “Concentration at which effects were found” value in assay [7] is recorded as 330 nM.
